The results in this text go back to PMC4055595, “Pharmacokinetic Compatibility of Ginsenosides and Schisandra Lignans in Shengmai-san: From the Perspective of P-Glycoprotein” (PLoS ONE, 2014).

The target of data set [1] is human MDR1-encoded P-gp (L-MDR1 cells) (Homo sapiens, UniProt P08183). Briefly: Transport of digoxin and ginsenosides across L-MDR1 cell monolayers (efflux ratio). Type of data set: in vitro ADME. Conditions: for Effect of verapamil on efflux ratio / Papp / Effect of SLE on efflux ratio / transport: L-MDR1 cells; for Effect of verapamil on efflux ratio / Papp: 10 µM verapamil; for Effect of SLE on efflux ratio / transport: SLE 2.0 and 10.0 µg/mL; for P-gp substrate classification: summary of transport/uptake in LLC-PK1, L-MDR1 and Caco-2 cells with verapamil. The protocol: (§1) LLC-PK1 cells, a cell line lacking P-gp, and the derived cell line L-MDR1, which over-express human MDR1-encoded P-gp, were grown in minimum essential medium with supplements at 37°C, 5% CO2, and 95% humidity. LLC-PK1 and L-MDR1 cells were seeded at a density of 12×10^6 cells per 150-cm^2 flask and grown for 7 days in medium 199 supplemented with 2 mM glutamine, 10% fetal bovine serum, 10 mg/500 mL of streptomycin, and 10,000 IU/500 mL of penicillin. To ensure a constant expression level of transport protein, L-MDR1 cells were grown in the presence of 640 nM vincristine. Cells were grown as monolayer on polycarbonate membrane filters (Transwell; Costar Corporation, Cambridge, MA) as outlined previously. Transepithelial resistance was measured in each well using a Millicell ERS ohmmeter (Millipore, Bedford, MA); wells registering a resistance of 200 ohms or greater, after correcting for the resistance obtained in control blank wells, were used in the transport experiments.
(§2) The LLC-PK1 and L-MDR1 cells were washed with warm Hank's balanced salt solution HBSS (pH 7.4) twice before transport experiment. HBSS containing verapamil (10 µM), SLE (2.0 and 10.0 µg/mL) or blank HBSS (control) was then loaded into both apical and basolateral chambers. After incubation at 37°C for 1.5 h, GE (100 µg/mL) was added to either the apical or basolateral side to evaluate the transport in absorptive and secretive directions, respectively. The cell monolayer was then incubated for another 2 h. Finally, the concentrations of ginsenosides were determined by LC/MS. All experiments were conducted in triplicate.
(§3) For the transport assay, the apparent permeability (P app, cm/s) in each direction (A→B and B→A) was calculated as follows, where A is the surface area of the membrane inserts (0.0804 cm^2), C 0 is the initial concentration of the compound applied in the donor compartment (2 µM), and △Q is the amount (micromoles) of compound transported over time △t (5 h = 18,000 s): [drawing 1]
(§4) The efflux ratio (ER) was a dimensionless number calculated as the ratio of the apparent permeability in the B→A direction divided by the apparent permeability in the A→B direction. [drawing 2]

A further data set addresses P-gp (MDR1) (Homo sapiens, UniProt P08183). The description is as above. Format: in vitro ADME. The note with it: human, read-out: Efflux ratio (Papp BL-AP / Papp AP-BL). The protocol: as §1, §2, §3, §4
Data set [2] has as its system LLC-PK1 cells (lacking P-gp). Put plainly: Transport of digoxin and ginsenosides across LLC-PK1 cell monolayers. Format: in vitro ADME. Conditions: for Effect of verapamil on transport (efflux ratio): 10 µM verapamil; for Effect of SLE on transport (AP→BL, BL→AP): SLE 2.0 and 10.0 µg/mL. The procedure: as §1, §2, §3, §4
A short description of data set [3]: Rat plasma pharmacokinetics after 10-day vehicle/SLE and digoxin or GE. Conditions: for AUC(0-inf): read-out: AUCINF_obs; for MRT inf: read-out: MRTINF_obs. Format: in vivo, Sprague-Dawley rats. The protocol: This study was carried out in strict accordance with the recommendations in the Guide for the Care and Use of Laboratory Animals of the National Institutes of Health. The protocol was approved by the Committee on the Ethics of Animal Experiments of the China Pharmaceutical University. All surgery was performed under sodium pentobarbital anesthesia, and all efforts were made to minimize suffering. […] The rats were fed with standard laboratory food and water and fasted overnight but with free access to water before the test. To evaluate the effect of long-term treatment with SLE on the pharmacokinetics of ginsenosides, 24 rats were also divided into four groups (group I∼ group IV) with 6 animals each. […] On the 11th day, digoxin was administered intragastrically to rats (group I and group II) at a single dose of 0.5 mg/kg, GE was administered intragastrically to rats (group III and group IV) at a single dose of 120 mg/kg. […] Plasma was obtained by centrifugation at 5000 g for 10 min and stored at −20°C before analysis. The plasma / cell samples were extracted using a liquid–liquid extraction technique. To each tube containing 100 µL plasma, 10 µL internal standard (digoxin, 1.0 µg/mL) and 1.0 mL of n-butanol were added. The mixture was then vortex-extracted for 2 min, and centrifuged for 10 min at 10,000 g. […] The plasma concentration-time curves of ginsenosides in rats were obtained by plotting the mean plasma concentrations versus time. Pharmacokinetic parameters were calculated using the WinNonlin 6.3 program (Pharsight Inc., Mountain View, CA). The elimination half-life (t 1/2) value was calculated as 0.693/β, where β is the elimination rate constant calculated from the terminal linear portion of the log plasma concentration-time curve. The total areas under the plasma concentration- time curve from time 0 to the last quantifiable time point (AUC0-t) and from time 0 to infinity (AUC0-∞) were calculated using the log trapezoidal rule. [drawing 3] The maximum plasma concentrations (C max) for ginsenosides were obtained by visual inspection of the plasma concentration-time curve, whereas the initial drug concentration (the extrapolated concentration at zero time) of the drug after intravenous injection was calculated by back-extrapolation of the plasma concentration-time curve to the y-axis.

Where [4] appears, read: LLC-PK1, pH 7.4, L-MDR1 cells, control (absence of verapamil), GE 100 µg/mL, 2 h.
Setting [5] is: LLC-PK1, pH 7.4, with verapamil 10 µM, L-MDR1 cells, presence of 10 µM verapamil.
[6] abbreviates: female, Sprague-Dawley, rat, plasma, po, rats, SLE 500 mg/kg ig once a day for 10 days, day 11 digoxin 0.5 mg/kg or GE 120 mg/kg ig.
[7] abbreviates: female, Sprague-Dawley, rat, plasma, po, rats, SLE 500 mg/kg ig once a day for 10 days, day 11 digoxin 0.5 mg/kg or GE 120 mg/kg ig, read-out: t1/2 (converted).
Where [8] appears, read: female, Sprague-Dawley, rat, plasma, po, rats, control: vehicle once a day for 10 days, day 11 digoxin 0.5 mg/kg or GE 120 mg/kg ig.
Where [9] appears, read: female, Sprague-Dawley, rat, plasma, po, rats, control: vehicle once a day for 10 days, day 11 digoxin 0.5 mg/kg or GE 120 mg/kg ig, read-out: t1/2 (converted).
Where [10] appears, read: rats, SLE 500 mg/kg ig once a day for 10 days, day 11 digoxin 0.5 mg/kg or GE 120 mg/kg ig.
Where [11] appears, read: rats, SLE 500 mg/kg x 10 days vs vehicle, GE ig on day 11.
[12] abbreviates: rats, control: vehicle once a day for 10 days, day 11 digoxin 0.5 mg/kg or GE 120 mg/kg ig.

Like-named read-outs stand apart in the source and are kept apart here. Some results are limits rather than exact numbers.

P-gp (MDR1), sequence (P08183 whole entry): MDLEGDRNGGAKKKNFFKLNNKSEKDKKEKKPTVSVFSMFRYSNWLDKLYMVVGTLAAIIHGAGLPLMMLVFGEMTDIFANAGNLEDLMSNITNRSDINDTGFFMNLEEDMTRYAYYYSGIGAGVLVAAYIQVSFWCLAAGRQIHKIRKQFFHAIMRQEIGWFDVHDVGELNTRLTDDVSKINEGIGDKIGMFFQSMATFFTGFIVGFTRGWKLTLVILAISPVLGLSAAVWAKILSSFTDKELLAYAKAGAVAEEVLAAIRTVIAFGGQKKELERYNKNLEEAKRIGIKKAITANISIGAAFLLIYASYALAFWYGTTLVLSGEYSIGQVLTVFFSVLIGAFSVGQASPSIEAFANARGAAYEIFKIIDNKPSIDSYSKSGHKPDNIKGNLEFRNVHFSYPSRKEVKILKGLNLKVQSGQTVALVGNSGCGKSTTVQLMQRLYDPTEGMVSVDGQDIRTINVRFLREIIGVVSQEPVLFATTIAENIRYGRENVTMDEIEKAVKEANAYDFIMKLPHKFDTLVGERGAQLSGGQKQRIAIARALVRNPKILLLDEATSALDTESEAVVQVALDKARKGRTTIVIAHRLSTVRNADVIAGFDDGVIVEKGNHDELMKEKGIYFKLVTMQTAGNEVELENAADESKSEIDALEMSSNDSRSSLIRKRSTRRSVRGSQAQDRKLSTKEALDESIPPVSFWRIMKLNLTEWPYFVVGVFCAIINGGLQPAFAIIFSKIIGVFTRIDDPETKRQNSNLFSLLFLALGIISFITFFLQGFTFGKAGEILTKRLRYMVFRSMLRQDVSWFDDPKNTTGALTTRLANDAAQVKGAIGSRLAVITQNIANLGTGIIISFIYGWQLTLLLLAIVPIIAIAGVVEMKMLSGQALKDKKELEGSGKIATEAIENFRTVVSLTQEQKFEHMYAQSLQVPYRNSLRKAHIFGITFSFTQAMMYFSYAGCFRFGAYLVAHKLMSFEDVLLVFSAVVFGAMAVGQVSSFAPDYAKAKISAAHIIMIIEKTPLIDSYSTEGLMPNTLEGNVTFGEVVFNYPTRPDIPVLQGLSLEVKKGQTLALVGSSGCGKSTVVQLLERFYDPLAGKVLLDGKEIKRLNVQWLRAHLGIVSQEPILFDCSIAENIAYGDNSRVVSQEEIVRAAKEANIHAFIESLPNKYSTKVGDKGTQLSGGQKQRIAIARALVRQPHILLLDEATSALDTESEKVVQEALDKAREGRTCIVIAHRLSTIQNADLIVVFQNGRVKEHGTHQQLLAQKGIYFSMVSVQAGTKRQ
human MDR1-encoded P-gp (L-MDR1 cells), sequence (P08183 whole entry): as above

Usually AUC stands for concentration integrated over time. Low values mean low exposure, high ones high exposure. As usually defined, the Cmax is the peak of the concentration-time curve. Usually Tmax stands for the time at which the peak concentration occurs. On to `CC(C)=CCC[C@](C)(O[C@@H]1O[C@H](CO[C@@H]2O[C@H](CO)[C@@H](O)[C@H](O)[C@H]2O)[C@@H](O)[C@H](O)[C@H]1O)[C@H]1CC[C@]2(C)[C@@H]1[C@H](O)C[C@@H]1[C@@]3(C)CC[C@H](O[C@@H]4O[C@H](CO)[C@@H](O)[C@H](O)[C@H]4O[C@@H]4O[C@H](CO)[C@@H](O)[C@H](O)[C@H]4O)C(C)(C)[C@@H]3CC[C@]12C` [Rb1, ginsenoside Rb1], for which, in data set [1], the “Effect of verapamil on efflux ratio / Papp” value is “significantly decrease of ER”, the “Effect of SLE on efflux ratio / transport” value is given as “significantly decreased” and the P-gp substrate classification entry is recorded as “moderate P-gp substrates”. The efflux ratio at 2 h, 100 µg/mL on P-gp (MDR1) (setting [4]) was over 3.5. In addition, the efflux ratio at 2 h, 100 µg/mL on P-gp (MDR1) (setting [5]) is 1.57. Further, in data set [2], the “Effect of verapamil on transport (efflux ratio)” value (from here on “Effect … (efflux ratio)”) is on record as “No transport difference” and the “Effect of SLE on transport (AP→BL, BL→AP)” value (“Effect of SLE on transport” below) was “No transport difference”. For the same molecule, in data set [3] (setting [6]), the AUC stood at 25600 ± 1300 ng·h/mL, the highest level (Cmax) was 736 ± 143 ng/mL, the AUC(0-inf) was 27000 ± 2380 ng·h/mL and the MRT inf came to 33.5 ± 7.91 h. Also, the Tmax in data set [3] (female, Sprague-Dawley, rat, plasma, po, rats, SLE 500 mg/kg ig once a day for 10 days, day 11 digoxin 0.5 mg/kg or GE 120 mg/kg ig, read-out: Tmax) amounted to 9.6 ± 2.19 h. Moreover, in data set [3] (setting [7]), the half-life is 19.3 ± 8.29 h. Further, in data set [3] (setting [8]), the AUC was found to be 14100 ± 5070 ng·h/mL, the Cmax is 430 ± 135 ng/mL, the AUC(0-inf) was 14300 ± 5180 ng·h/mL and the MRT inf was 28.1 ± 4.81 h. Besides, the Tmax in data set [3] (female, Sprague-Dawley, rat, plasma, po, rats, control: vehicle once a day for 10 days, day 11 digoxin 0.5 mg/kg or GE 120 mg/kg ig, read-out: Tmax) came out at 10 ± 4.47 h. Moreover, the half-life in data set [3] (setting [9]) is 17.2 ± 2.16 h. Further, in data set [3] (setting [10]), the AUCINF_obs stood at 27017 ± 2381 ng·h/mL and the Cl_F_obs stood at 0.0037 ± 0.0003 L/h. Also, the “Increase of AUC (AUC0-∞) by 10 continuous days administration of SLE” value (“Increase of AUC (AUC0-∞)” below) in data set [3] (setting [11]) worked out at 1.82 fold. In data set [3] (setting [12]), this molecule had an AUCINF_obs of 14324 ± 5178 ng·h/mL and a Cl_F_obs of 0.0079 ± 0.0035 L/h.

On to `CC(C)=CCC[C@](C)(O[C@@H]1O[C@H](CO[C@@H]2O[C@@H](CO)[C@H](O)[C@H]2O)[C@@H](O)[C@H](O)[C@H]1O)[C@H]1CC[C@]2(C)[C@@H]1[C@H](O)C[C@@H]1[C@@]3(C)CC[C@H](O[C@@H]4O[C@H](CO)[C@@H](O)[C@H](O)[C@H]4O[C@@H]4O[C@H](CO)[C@@H](O)[C@H](O)[C@H]4O)C(C)(C)[C@@H]3CC[C@]12C` [Rc, ginsenoside Rc], for which, in data set [1], the “Effect of verapamil on efflux ratio / Papp” value is given as “significantly decrease of ER”, the “Effect of SLE on efflux ratio / transport” value is listed as “significantly decreased” and the P-gp substrate classification entry is listed as “moderate P-gp substrates”. Further, at P-gp (MDR1) (setting [4]), the efflux ratio at 2 h, 100 µg/mL is over 3.5. For the same molecule, the efflux ratio at 2 h, 100 µg/mL on P-gp (MDR1) (setting [5]) was found to be 1.42. Besides, in data set [2], the “Effect … (efflux ratio)” value is “No transport difference” and the “Effect of SLE on transport” value was “No transport difference”. Moreover, in data set [3] (female, Sprague-Dawley, rat, in vivo), the “Increase of AUC (AUC0-∞)” value came to 1.16 fold. The molecule also displayed a t1/2 in data set [3] (female, Sprague-Dawley, rat, in vivo, po) of 20.81 ± 9.64 h. Moreover, the Tmax in data set [3] (female, Sprague-Dawley, rat, in vivo, po, Tmax) was 11.2 ± 1.79 h. The half-life in data set [3] (female, Sprague-Dawley, rat, in vivo, po, t1/2) was 26.8 ± 3.08 h.

On to `CC(C)=CCC[C@](C)(O[C@@H]1O[C@H](CO)[C@@H](O)[C@H](O)[C@H]1O)[C@H]1CC[C@]2(C)[C@@H]1[C@H](O)C[C@@H]1[C@@]3(C)CC[C@H](O[C@@H]4O[C@H](CO)[C@@H](O)[C@H](O)[C@H]4O[C@@H]4O[C@H](CO)[C@@H](O)[C@H](O)[C@H]4O)C(C)(C)[C@@H]3CC[C@]12C` [Rd, ginsenoside Rd], for which, in data set [1], the “Effect of verapamil on efflux ratio / Papp” value is “significantly decrease of ER”, the “Effect of SLE on efflux ratio / transport” value is listed as “significantly decreased” and the P-gp substrate classification entry was “moderate P-gp substrates”. Also, the efflux ratio at 2 h, 100 µg/mL on P-gp (MDR1) (setting [5]) was 2.19. In data set [2], the “Effect … (efflux ratio)” value is reported as “No transport difference” and the “Effect of SLE on transport” value was “No transport difference”. In addition, in data set [3] (setting [6]), the AUC stood at 7640 ± 2690 ng·h/mL, the Cmax came out at 265 ± 49.4 ng/mL, the AUC(0-inf) was 11700 ± 8560 ng·h/mL and the MRT inf worked out at 26.3 ± 90.6 h. In data set [3] (setting [7]), the half-life was 18 ± 75.9 h. In addition, in data set [3] (setting [8]), the AUC was 6570 ± 1820 ng·h/mL, the highest level (Cmax) was 262 ± 104 ng/mL, the AUC(0-inf) was 7460 ± 2340 ng·h/mL and the MRT inf was found to be 22.4 ± 9.98 h. The half-life in data set [3] (setting [9]) is 20.8 ± 9.64 h. In addition, in data set [3] (setting [10]), the Cl_F_obs came to 0.0125 ± 0.0084 L/h and the Tmax was 8.00 ± 2.45 h. The “Increase of AUC (AUC0-∞)” value in data set [3] (setting [11]) was determined as 1.60 fold. For the same molecule, the Tmax in data set [3] (setting [12]) turned out to be 8.00 ± 2.45 h.
